The structures appear in SMILES notation.

Consider five compounds from US20130295036A1, “METHOD OF USING WOOD EXTRACTS IN COSMETIC AND HYGIENE PRODUCTS” (FLAVITPURE, INC., priority 2012, published 2013).

For series [1], the system named is 5-LOX mediated LT biosynthesis. The series can be described thus: Leukotriene (LT) biosynthesis inhibition. The series is classed as biochemical. From the text: (§1) The body's early defense in response to trauma, inflammation or infection, the acute phase response (APR), is a complex set of systemic reactions seen shortly after exposure to a triggering event. The APR is induced by protein hormones called cytokines acting as messengers between the local site of injury and the hepatocytes synthesizing the acute phase proteins such as serum amyloid A. Most cytokines have multiple sources, targets and multiple functions. The pro-inflammatory cytokines can be divided into two major groups with respect to acute phase proteins inductions, the Interleukin-1 (IL-1) type (including Tumor Necrosis Factor-a, TNF-a) and the IL-6 type cytokines (including IL-6 cytokine). These cytokines are secreted primarily by monocytes activated by bacterial toxins or in response to local tissue injury.

A further series deals with rats. As to conditions: high levels for long periods of time; cited from earlier work.
Series [2] deals with Antioxidant Response Element. As to conditions: cited from earlier work.
Another series relates to lipid peroxidation. To be noted: in vitro and ex vivo; cited from earlier work.
In series [3] the test system is dendritic cells of bone marrow and spleen. As to conditions: cited from earlier work.
Another series deals with serum and liver lipids. To be noted: following exposure to toxic ionizing radiation; cited from earlier work.
The target of a further series is T1, COX-2 (Homo sapiens, UniProt P35354).
T1 sequence (P35354 18-604): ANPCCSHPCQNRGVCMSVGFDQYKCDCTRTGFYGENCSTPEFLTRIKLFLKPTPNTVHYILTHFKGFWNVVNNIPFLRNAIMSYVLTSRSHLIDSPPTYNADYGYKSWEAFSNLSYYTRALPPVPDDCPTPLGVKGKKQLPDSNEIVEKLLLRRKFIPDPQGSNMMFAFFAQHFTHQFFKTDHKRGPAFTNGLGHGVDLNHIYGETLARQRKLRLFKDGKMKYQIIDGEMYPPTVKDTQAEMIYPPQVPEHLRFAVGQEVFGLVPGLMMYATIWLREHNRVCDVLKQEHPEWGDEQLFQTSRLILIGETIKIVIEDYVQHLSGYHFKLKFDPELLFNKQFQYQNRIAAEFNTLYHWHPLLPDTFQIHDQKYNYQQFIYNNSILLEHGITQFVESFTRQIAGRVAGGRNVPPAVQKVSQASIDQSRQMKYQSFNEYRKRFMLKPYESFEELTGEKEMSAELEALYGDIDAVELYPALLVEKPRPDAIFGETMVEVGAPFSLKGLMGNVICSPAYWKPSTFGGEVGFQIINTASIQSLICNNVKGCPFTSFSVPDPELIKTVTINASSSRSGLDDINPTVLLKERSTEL
Nature of the series: COX-2 inhibition. The series is classed as biochemical.
Text: as §1

For the compound `C=C[C@@]1(C)CC[C@H]2C(=CC[C@@H]3[C@]2(C)CCC[C@@]3(C)C(=O)O)C1` [Isopimaric acid], the “LT biosynthesis inhibitory activity” value in series [1] is reported as “potent inhibitor”.
Same read-out and setting: the value for `C=CC(C)(O)CCC1C(=C)CC(OC(C)=O)C2C(C)(C)CCCC12C` (stereo not shown) [Larixyl acetate] was “highly active”.
With `O=C1c2c(O)cc(O)cc2O[C@H](c2ccc(O)c(O)c2)[C@H]1O` [Dihydroquercetin (taxifolin), (2R,3R)-2-(3,4-dihydroxyphenyl)-3,5,7-trihydroxy-chroman-4-one], the toxic effects result in the series on rats is on record as “No toxic effects”. The “activation of Antioxidant Response Element” value in series [2] is “significantly activates”. In the series on lipid peroxidation, the “inhibition of lipid peroxidation” value is “inhibits lipid peroxidation”. For the same compound, the “production of cytokines, formation of ROS and NO, and change in intracellular Ca2+ levels” value in series [3] is “significant inhibitory effect”. For the same compound, the “peroxidation of serum and liver lipids” value in the series on serum and liver lipids was “inhibited”.
`CC(C)C1=CC2=C(CC1)[C@@]1(C)CCC[C@@](C)(C(=O)O)[C@@H]1CC2` [palustric acid]: in series [1], the “LT biosynthesis inhibitory activity” value is reported as “less pronounced”. The COX-2 inhibitory activity entry on COX-2 was “moderate”.
With `CC(C)c1ccc2c(c1)CC[C@H]1[C@](C)(CO)CCC[C@]21C` [dehydroabietinol], the “LT biosynthesis inhibitory activity” value in series [1] was “high LT formation inhibitory activity”.
